Measured values published in patent US6908934B2, “Therapeutic compounds for treating dyslipidemic conditions” (Merck & Co., Inc., priority 2001, dated 2005).

Tested on: ABCA1 mRNA
Experiment: cells
Assay type: cell-based
Settings: Primary macrophage, human primary macrophages, 18 h + 6 h treatment, vs DMSO control, read-out: Fold Induction of ABCA1 mRNA (Mean ± SEM)
Method: Induction of ABCA1 mRNA Levels
Human Primary Macrophages were used to test the ability of LXR ligands to induce the expression of ABCA1 mRNA. The collection and purification of monocytes and their subsequent differentiation into macrophages by culturing in Teflon jars for 7-9 days was performed according to Wright and Silverstein J. Exp. Med. V156, October 1982 pp 1149-1164. Cells were harvested from the Teflon jars and seeded into appropriate vessels in RPMI1640 plus 12% human serum and antibiotics. Cells were allowed to recover overnight before treatment. Treatment was for 18 hours with the described compounds, followed by a re-application of fresh compounds for an additional 6 hours in DMEM minus Phenol Red with 10% charcoal stripped FCS. The cells were harvested and total RNA prepared using the phenol/guanidine isothiocyanate method as supplied and described by Molecular Research Center, Inc. (TRI REAGENT® Cat. No. TR 118). ABCA1 mRNA levels in the total RNA were measured using the TaqMan® mRNA quantitation system, following protocols published by the manufacturer (Perkin-Elmer). The oligonucleotide PCR primers used to detect ABCA1 were:
The oligonucleotide probe used was:
6FAM-[…]-TAMRA ABCA1 mRNA levels in each sample were normalized to the mRNA levels for the 23 kDa highly basic protein. The oligonucleotide PCR primers used to detect the 23 kDa highly basic protein were: […]

CC(C)CC[C@@H](O)[C@@H](C)[C@H]1CC[C@H]2[C@@H]3CC=C4C[C@@H](O)CC[C@]4(C)[C@H]3CC[C@]12C [22-(R)-hydroxycholesterol]
fold induction at 10 µM: 8 ± 1.37
